Data as given in patent publication US20100074886A1, “CCR2 ANTAGONISTS FOR TREATMENT OF FIBROSIS” (priority 2006, published 2010).

Key:
[1] = test system: fibrotic fibroblasts (UIP patients); assay: Profibrotic gene expression (real time PCR) after 24 hrs stimulation of fibrotic fibroblasts; assay type: cell-based, human; details: for IL13Ra2 gene expression (FIG. 7B): fibroblasts, cell type not given; for CTGF gene expression (FIG. 5): fibrotic (UIP) fibroblasts; for TGFb1 gene expression (FIG. 4) / aSMA expression (FIG. 2) / increase in aSMA expression: fibrotic fibroblasts; for increase in aSMA expression: vs unstimulated
Excerpt: (§1) Cell lines were provided by Dr Cory Hogaboam at the University of Michigan. All of the primary fibroblast lines were isolated as previously described (Hogaboam et al. 1999 J Immunol 163(4):2193-201). Pulmonary fibroblasts were isolated from lung biopsies taken from UIP patients (n=4) and these are referred to as “fibrotic fibroblasts”. Fibroblasts were also isolated from lung tissue taken during lung tumor resection (n=5) and these samples were confirmed to be non-fibrotic by histological analysis. These non-fibrotic tissue derived fibroblasts are referred to as “non-fibrotic fibroblasts”.
(§2) Human lung fibroblasts were plated into 24 well plates (Costar, Corning, N.Y.) at 100,000 cells/well and allowed to adhere for 8 hours. The cells were then washed with PBS and cultured overnight in serum free media (DMEM with 1-Glutamine, Pen/Strep). Cells were then stimulated for 24 hrs in the presence or absence of TGFb-1 (1 or 10 ng/mL), PDGF-AB (20 or 200 ng/mL) or CCL2 (1 or 10 ng/mL). TGFb1, PDGF-AB and CCL2 were purchased from R&D Systems. Supernatants were removed and RNA was subsequently isolated using RNeasy Plus Mini-Kits (QIAGEN, Valencia, Calif.) as per manufacturer's instructions and RNA was reverse transcribed into cDNA using TaqManâ Reverse Transcription Reagents (Applied Biosystems, Foster City, Calif.). Profibrotic gene expression was determined by real time PCR using the Taqmanâ Universal PCR Master Mix (Applied Biosystems) and pre-developed Taqmanâ Gene Expression Assays (Applied Biosystems) as per manufacture's instructions.
(§3) Quantitative gene expression was calculated using the comparative CT method, where CT values are determined as the threshold cycle number for which gene expression is first detected. Fold changes in gene expression for the genes of interest were first normalized to the housekeeping gene 18S, giving ACT values. Fold changes in expression between fibrotic and non-fibrotic fibroblasts were calculated as: ΔCT(non-fibrotic)−ΔCT(fibrotic)=ΔΔCT, where the non-fibrotic gene expression served as the calibrator. Fold changes in gene expression due to in vitro stimulation were calculated by ΔΔCT=ΔCT(unstimulated)−ΔCT(stimulated), where the unstimulated sample served as calibrator. The calculation 2-ΔΔCT then gives a relative value for final fold change when compared to calibrator.

non-fibrotic fibroblasts = assay: Profibrotic gene expression (real time PCR) after 24 hrs stimulation of non-fibrotic fibroblasts; assay type: cell-based, human
Excerpt: as §1, §2, §3

Substance	IL13Ra1 gene expression (FIG. 7A) ([1]; UIP fibroblasts)	TGFbRII gene expression (FIG. 6B) ([1]; UIP fibroblasts)	procollagen I gene expression (FIG. 3A) ([1]; UIP fibroblasts)	procollagen III gene expression (FIG. 3B) ([1]; UIP fibroblasts)	IL13Ra2 gene expression (FIG. 7B) [1]	CTGF gene expression (FIG. 5) [1]	TGFb1 gene expression (FIG. 4) [1]	aSMA expression (FIG. 2) [1]	increase in aSMA expression [1]	aSMA expression (FIG. 2) (non-fibrotic fibroblasts)	TGFbRI gene expression (FIG. 6A) ([1]; UIP fibroblasts)	CTGF gene expression (FIG. 5) (non-fibrotic fibroblasts)	TGFb1 gene expression (FIG. 4) (non-fibrotic fibroblasts)
CCL2: CC-chemokine ligand 2, Monocyte Chemoattractant Protein 1; purchased from R&D Systems, used as fibroblast stimulus	upregulated	somewhat greater increase in TGFbRII	induces	induces	upregulated	induced an increase	enhances TGFb1 gene expression	induced an increase	more than 10 fold	only induced an increase in aSMA expression in fibrotic fibroblasts	–	–	–
PDGF: platelet-derived growth factor alpha/beta; purchased from R&D Systems, used as fibroblast stimulus	upregulated	–	–	–	upregulated	induced an increase	–	modest increase	less than 10 fold	only in the fibrotic fibroblasts	–	–	–
TGFb1: transforming growth factor beta-1; purchased from R&D Systems, used as fibroblast stimulus	upregulated	–	–	–	upregulated	induced an increase	increased TGFβ1	induced aSMA	–	induced aSMA	greater effect on TGFbRI	induced an increase	increased TGFβ1
